Several values for one entry are separate records, joined by “and”; a condition that tells them apart may be missing. Equal entries are not always repeated.
Target: T1, human recombinant serotonin 5-HT2A receptor (Homo sapiens, UniProt P28223)
T1 construct: expressed in transfected cells; host or cells: HEK-293 cells
Assay: Serotonin 5-HT2A agonist/antagonist functional assay (calcium fluorescence, HEK-293)
Assay type: cell-based
Details: antagonist mode
From the text: To determine for agonist or antagonist activity of compounds of the invention in functional assays, human recombinant serotonin 5-HT2A receptor expressed in human embryonic kidney (HEK-293) cells (Jerman J C, Brough S J, Gager T, Wood M, Coldwell M C, Smart D and Middlemiss D N. Eur J Pharmacol, 414: 23-30, 2001) was used. Cells were suspended in DMEM buffer, and distributed in microplates. A cytoplasmic calcium fluorescent indicator which varies proportionally to the free cytosolic Ca^2+ ion concentration was mixed with probenicid in HBSS buffer complemented with 20 mM Hepes (pH 7.4), added into each well and equilibrated with the cells for 30 min at 37° C. followed by 30 min at 22° C. […]
The standard reference antagonist was ketanserin, which was tested in each experiment at several concentrations to generate a concentration-response curve from which its IC50 value was calculated.

T1 sequence (P28223 whole entry): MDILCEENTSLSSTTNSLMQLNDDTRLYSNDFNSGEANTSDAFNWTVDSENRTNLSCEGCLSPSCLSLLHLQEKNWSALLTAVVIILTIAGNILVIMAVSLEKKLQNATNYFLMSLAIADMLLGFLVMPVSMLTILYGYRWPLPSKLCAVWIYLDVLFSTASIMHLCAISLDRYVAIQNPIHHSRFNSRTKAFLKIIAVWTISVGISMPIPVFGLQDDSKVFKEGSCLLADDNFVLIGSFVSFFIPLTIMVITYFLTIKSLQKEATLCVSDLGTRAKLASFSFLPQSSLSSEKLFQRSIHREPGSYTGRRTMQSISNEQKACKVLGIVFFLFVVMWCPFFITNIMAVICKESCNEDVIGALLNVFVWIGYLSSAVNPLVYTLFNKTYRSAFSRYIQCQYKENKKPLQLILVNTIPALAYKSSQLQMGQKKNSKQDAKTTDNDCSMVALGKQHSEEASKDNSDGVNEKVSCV

SMILES	% of Control Agonist Response, 1st Assay (test concentration 1.00E−07 M)	% of Control Agonist Response, 2nd Assay (test concentration 1.00E−07 M)	% of Control Agonist Response, Mean (test concentration 1.00E−07 M)	% of Control Agonist Response, Mean (test concentration 3.00E−06 M)	% of Control Agonist Response, 1st Assay (test concentration 3.00E−07 M)	% of Control Agonist Response, 2nd Assay (test concentration 3.00E−07 M)	% of Control Agonist Response, Mean (test concentration 3.00E−07 M)	% of Control Agonist Response, 1st Assay (test concentration 3.00E−08 M)	% of Control Agonist Response, 2nd Assay (test concentration 3.00E−08 M)	% of Control Agonist Response, Mean (test concentration 3.00E−08 M)	% of Control Agonist Response, 1st Assay (test concentration 1.00E−06 M)	% of Control Agonist Response, 2nd Assay (test concentration 1.00E−06 M)	% of Control Agonist Response, Mean (test concentration 1.00E−06 M)	% of Control Agonist Response, 1st Assay (test concentration 3.00E−06 M)	% of Control Agonist Response, 2nd Assay (test concentration 3.00E−06 M)
CN1CCc2c(c3cc(Cl)ccc3n2CCc2ccccc2)C1 [Compound 36, 8-chloro-2,3,4,5-tetrahydro-2-methyl-5-phenethyl-1H-pyrido[4,3-b]indole]	111% and 100% and 105%	102% and 106% and 115%	106.4% and 103% and 109.9%	5.3% and 9.7% and 0.4%	92% and 109%	105% and 98% and 97%	98.8% and 94.8% and 102.8%	109%	108%	108.7%					
COc1ccc(CCn2c3c(c4cc(C)ccc42)CN(C)CC3)cc1 [Compound 247]	117% and 93%	116% and 94% and 95%	116.5% and 93.5% and 93.9%	−3.2%		76% and 72% and 38%		122% and 103%	120% and 108% and 111%	121.3% and 104.5% and 107%	−4% and −2% and 2%	0% and 3%	−1.7% and 0.3% and 0.7%	−4%	−3%

Source: US9096591B2, “Tetracyclic compounds” (Medivation Technologies, Inc., priority 2007, dated 2015)
